Test results as given in article PMC11747885, “Potent inhibitors of the human RNA ligase Rlig1 highlights its role in RNA integrity maintenance under oxidative cellular stress” (Chemical Science, 2025).
“And” between values parts separate entries of the source, which are not always exact repeats. Equal values may be shown once. Read-outs that look alike come from different tables or passages of the source.

Columns and labels:
Rlig1-AMP = target: T1, Rlig1-AMP (Homo sapiens, UniProt Q8N999); test: FRET-based high-throughput screening of inhibitors for Rlig1-AMP; type: biochemical; conditions: for Raw data [w Enyzm]: with enzyme; for Raw data [w/o Enzym]: without enzyme
T1 construct: made in house; host or cells: E. coli BL21 (DE3), pET15b-Rlig1
T1 sequence (Q8N999 whole entry): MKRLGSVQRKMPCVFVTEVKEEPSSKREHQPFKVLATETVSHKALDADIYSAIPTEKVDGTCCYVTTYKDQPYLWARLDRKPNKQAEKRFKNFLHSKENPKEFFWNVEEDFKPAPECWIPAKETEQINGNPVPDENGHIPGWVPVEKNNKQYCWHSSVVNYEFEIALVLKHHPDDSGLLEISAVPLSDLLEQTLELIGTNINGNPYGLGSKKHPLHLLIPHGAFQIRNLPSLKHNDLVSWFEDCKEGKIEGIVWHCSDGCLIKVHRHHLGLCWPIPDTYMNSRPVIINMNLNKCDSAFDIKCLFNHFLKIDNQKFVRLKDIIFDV

[1] = ref MedChemExpress, cited from earlier work; for solubility, DMSO: in DMSO
[2] = DMSO; ref MedChemExpress; cited from earlier work
[3] = ultrasonic/warming, ref MedChemExpress, cited from earlier work
[4] = DMSO; ref MedChemExpress; cited from earlier work; remark: listed apart in the source
[5] = sheet HTS hits, difference of raw data w/o and w enzyme
[6] = HTS hits, difference of raw data w/o and w enzyme
[7] = HTS hits, normalised value of 1-D Distance

CO[C@H]1/C=C/O[C@@]2(C)Oc3c(C)c(O)c4c(O)c(c(/C=N/N5CCN(C6CCCC6)CC5)c(O)c4c3C2=O)NC(=O)/C(C)=C\C=C\[C@H](C)[C@H](O)[C@@H](C)[C@@H](O)[C@@H](C)[C@H](OC(C)=O)[C@@H]1C [Rifapentine]
1-D Distance (Rlig1-AMP; [5]): 1003
Raw data [w Enyzm] (Rlig1-AMP; sheet HTS hits): 7400
Raw data [w/o Enzym] (Rlig1-AMP; sheet HTS hits): 6397
solubility, DMSO [1]: ≥ 50 mg/mL
solubility, H2O ([1]; in H2O): < 0.1 mg/mL

O=C1c2ccccc2-c2nc3nonc3nc21 [SMER3]
1-D Distance.npi (Rlig1-AMP; sheet HTS hits, MedChemExpress library): 102.522
1-D Distance (Rlig1-AMP; [5]): 157
Raw data [w Enyzm] (Rlig1-AMP; sheet HTS hits): 13928
Raw data [w/o Enzym] (Rlig1-AMP; sheet HTS hits): 13771
solubility, DMSO [1]: DMSO : 12.5 mg/mL (55.76 mM; Need ultrasonic)

O=C(O)c1cc(O)c2c(c1)[C@H]([C@H]1c3cc(C(=O)O)cc(O)c3C(=O)c3c(O[C@@H]4O[C@H](CO)[C@@H](O)[C@H](O)[C@H]4O)cccc31)c1cccc(O[C@@H]3O[C@H](CO)[C@@H](O)[C@H](O)[C@H]3O)c1C2=O [Sennoside A]
1-D Distance (Rlig1-AMP; HTS hits, difference of raw data without and with enzyme): 1736
Raw data [w Enyzm] (Rlig1-AMP; HTS hits): 4442
Raw data [w/o Enzym] (Rlig1-AMP; HTS hits): 6178
solubility [2]: 250 mg/mL and 289.77 mM

O=C(O)c1cc(O)c2c(c1)[C@@H]([C@H]1c3cc(C(=O)O)cc(O)c3C(=O)c3c(O[C@@H]4O[C@H](CO)[C@@H](O)[C@H](O)[C@H]4O)cccc31)c1cccc(O[C@@H]3O[C@H](CO)[C@@H](O)[C@H](O)[C@H]3O)c1C2=O [Sennoside B]
1-D Distance (Rlig1-AMP; [6]): 1108
Raw data [w Enyzm] (Rlig1-AMP; HTS hits): 3598
Raw data [w/o Enzym] (Rlig1-AMP; HTS hits): 4706
solubility, DMSO [3]: 125 mg/mL and 144.89 mM

C[n+]1ccc(-c2c3nc(c(-c4cc[n+](C)cc4)c4ccc([nH]4)c(-c4cc[n+](C)cc4)c4nc(c(-c5cc[n+](C)cc5)c5ccc2[nH]5)C=C4)C=C3)cc1.Cc1ccc(S(=O)(=O)[O-])cc1.Cc1ccc(S(=O)(=O)[O-])cc1.Cc1ccc(S(=O)(=O)[O-])cc1.Cc1ccc(S(=O)(=O)[O-])cc1 [TMPyP4 tosylate]
1-D Distance (Rlig1-AMP; [6]): 40
1-D Distance.npi (Rlig1-AMP; [7]): 106.113
Raw data [w Enyzm] (Rlig1-AMP; HTS hits): 658
Raw data [w/o Enzym] (Rlig1-AMP; HTS hits): 698
solubility, DMSO [3]: 10 mg/mL and 7.33 mM
solubility, H2O [3]: 25 mg/mL and 18.33 mM

CC1(C)CCC(C)(C)c2cc(NC(=O)c3ccc(C(=O)O)cc3)ccc21 [Tamibarotene]
1-D Distance (Rlig1-AMP; [6]): 1704
Raw data [w Enyzm] (Rlig1-AMP; HTS hits): 8958
Raw data [w/o Enzym] (Rlig1-AMP; HTS hits): 10662
solubility, DMSO [3]: 25.5 mg/mL and 72.56 mM

CCOc1ccccc1OCCN[C@H](C)Cc1ccc(OC)c(S(N)(=O)=O)c1 [Tamsulosin]
1-D Distance (Rlig1-AMP; [5]): 1837
Raw data [w Enyzm] (Rlig1-AMP; sheet HTS hits): 8934
Raw data [w/o Enzym] (Rlig1-AMP; sheet HTS hits): 10771
solubility, DMSO [1]: DMSO : 100 mg/mL (244.79 mM; Need ultrasonic)

Cn1nc(-c2ccc(C(F)(F)F)cc2)nc2c(=O)n(C)c(=O)nc1-2 [Walrycin B]
1-D Distance (Rlig1-AMP; [6]): 868
1-D Distance.npi (Rlig1-AMP; HTS hits, normalized value (npi)): 89.8871
Raw data [w Enyzm] (Rlig1-AMP; HTS hits): 16245
Raw data [w/o Enzym] (Rlig1-AMP; HTS hits): 17113
solubility [4]: 11.5 mg/mL and 34.10 mM

Heparin (Lithium salt)
1-D Distance (Rlig1-AMP; [6]): 1112
1-D Distance.npi (Rlig1-AMP; [7]): 83.0264
Raw data [w Enyzm] (Rlig1-AMP; HTS hits): 12003
Raw data [w/o Enzym] (Rlig1-AMP; HTS hits): 13115
solubility, H2O [3]: H2O : 100 mg/mL (Need ultrasonic)
